Patent US20090088380A1, “GHRH ANALOGS AND THERAPEUTIC USES THEREOF” (priority 2007, published 2009)
Values joined by “and” are separate entries in the source; they are usually repeats but may differ in a detail not shown here. Equal entries are not always repeated. Non-standard residues stand in square brackets, D forms with d. Residues, ends and D or L forms follow the SMILES beside them.

Legend:
endogenous GH secretion = experiment: Phase II CKD: 24-hour GH profile and deconvolution; type: in vivo, human
Method: Blood samples for assessment of GH secretion had to be taken over 24 hours because the release of endogenous GH was pulsatile and not consistent throughout the day. Much of endogenous GH release is closely coupled to periods of slow-wave sleep, and the bulk of GH secretion usually occurs between midnight and 4 am. […] To document clearly the effect of the GHRH(1-29)NH2 synthetic analog on endogenous GH secretion, the following protocol had been designed: first, baseline endogenous GH secretion was assessed on Day 0 by sampling blood every 20 minutes for 20 hours and every 10 minutes for 4 hours. At the end of this sampling period (in the afternoon of Day 1), the first injection of the GHRH(1-29)NH2 synthetic analog was given. At the end of the 4-week treatment period (Day 28), GH secretion was reassessed by another 24-hour secretion profile. This profile started at 8:30 am with the morning injection of the GHRH(1-29)NH2 synthetic analog. Blood was collected every 10 minutes for the first 4 hours, followed by sampling every 20 minutes for the next 20 hours; this period included the afternoon injection of the GHRH(1-29)NH2 synthetic analog. In this way, it was possible to assess the evolution of both the pituitary's immediate GHRH response and that of time-integrated 24-hour GH secretion over extended treatment.
On Day 0 (baseline) and Day 28, subjects commenced 24-hour sampling at 10 and 20-minute intervals to construct a GH profile. […] The cannula was flushed with heparin-saline solution after each blood withdrawal to prevent clotting. Immediately before each blood collection, the residual heparin-saline volume instilled in the cannula was withdrawn with 0.5 mL blood in a separate syringe. This volume was reinjected after collection of the sample used for GH analysis.
At the baseline visit, blood sampling for the 24-hour GH profile commenced on Day 0 by taking samples at 20-minute intervals for 20 hours. Immediately at the end of this period, on the morning of Day 1, samples were taken at 10-minute intervals for 4 hours. The first dose of investigational product was not given before the end of the 24-hour GH profile period. On Day 28, samples were taken pre-dose, at 10-minute intervals for the first 4 hours (at the same time of day as the 4-hour period on Day 1) and at 20-minute intervals thereafter for a further 20 hours.
Samples were analysed for GH at the Department of Nephrology, Endocrinology and Metabolic Diseases, Silesian University School of Medicine, Katowice, Poland using a commercial kit.

[1] = system: malnourished subjects with CKD; experiment: Phase II CKD: biochemical markers of nutritional and metabolic state (plasma proteins, glucose control, lipids); type: in vivo, human
Method: Plasma proteins were measured as markers for renal disease and malnourishment. Blood samples were analysed locally. Albumin (g/L) were measured at screening, baseline and on Day 28. Blood samples for measurement of pre-albumin (g/L) were collected at baseline, Day 14 and Day 28. Transferrin (g/L) was measured at baseline, Day 7, Day 14 and Day 28.
HbA1c (%) was measured at screening and Day 28 as a marker for long-term glucose control. Fasting insulin (μunits/mL) and fasting glucose (mmol/L) were measured at baseline, Day 7, Day 14 and Day 28 as markers for short-term glucose control.
Fasting triglyceride (mmol/L) and fasting cholesterol (mmol/L) were measured at baseline, Day 7, Day 14 and Day 28 as markers for lipid metabolism.

[2] = GH deconvolution, ITT, Baseline
[3] = GH deconvolution, ITT, Day 28, vs placebo

`CC[C@H](C)[C@H](NC(=O)[C@H](C)NC(=O)[C@H](CC(=O)O)NC(=O)[C@@H](C)NC(=O)[C@@H](N)Cc1ccc(O)cc1)C(=O)N[C@@H](Cc1ccccc1)C(=O)N[C@H](C(=O)N[C@@H](CC(N)=O)C(=O)N[C@@H](CO)C(=O)N[C@H](Cc1ccc(O)cc1)C(=O)N[C@@H](CCCNC(=N)N)C(=O)N[C@@H](CCCCN)C(=O)N[C@H](C(=O)N[C@@H](CC(C)C)C(=O)N[C@H](C)C(=O)N[C@@H](CCC(N)=O)C(=O)N[C@@H](CC(C)C)C(=O)N[C@@H](CO)C(=O)N[C@@H](C)C(=O)N[C@@H](CCCNC(=N)N)C(=O)N[C@@H](CCCCN)C(=O)N[C@@H](CCCCN)C(=O)N[C@@H](CC(C)C)C(=O)N[C@@H](CCC(N)=O)C(=O)N[C@@H](CC(=O)O)C(=O)N[C@H](C(=O)N[C@@H](CCSC)C(=O)N[C@@H](CO)C(=O)N[C@@H](CCCNC(=N)N)C(N)=O)[C@@H](C)CC)C(C)C)[C@@H](C)O` [GHRH analog #5, [D-Ala^2, D-Tyr^10, D-Ala^15, Lys^22] hGHRH(1-29)-NH2] (H-Y[dA]DAIFTNS[dY]RKVL[dA]QLSARKKLQDIMSR-NH2) was tested, and the “1st component half-life: median” value (endogenous GH secretion; [2]) was 6 min, the “2nd component half-life: median” value (endogenous GH secretion; [2]) was 16 min and the “% pulsatile secretion rate: mean (SD)” value (endogenous GH secretion; [2]) was 79.02 (9.09) %. For the same compound, the “Basal secretion rate: median” value (endogenous GH secretion; [2]) was 27 mU/L/24 h, the “Inter-pulse regularity: mean (SD)” value (endogenous GH secretion; [2]) was 2.35 (0.63) and the “Mass per pulse: mean (SD)” value (endogenous GH secretion; [2]) was 11.30 (7.02) mU/L. For the same compound, the “Mean pulse frequency (per 24 h): mean (SD)” value (endogenous GH secretion; [2]) was 8.09 (2.81) per 24 h, the “Number of pulses: mean (SD)” value (endogenous GH secretion; [2]) was 8.8 (3.2) and the “Pulsatile secretion rate: median” value (endogenous GH secretion; [2]) was 100 mU/L/24 h. For the same compound, the “Time from onset to peak of burst: mean (SD)” value (endogenous GH secretion; [2]) was 32.8 (3.9) min, the “Total secretion rate: median” value (endogenous GH secretion; [2]) was 120 mU/L/24 h and the “1st component half-life: median” value (endogenous GH secretion; GH deconvolution, ITT, Day 28) was 2 min. For the same compound, the “2nd component half-life: comparison vs placebo” value (endogenous GH secretion; GH deconvolution, ITT, Day 28) was 4.8, the “2nd component half-life: median” value (endogenous GH secretion; GH deconvolution, ITT, Day 28) was 26 min and the “% pulsatile secretion rate: comparison vs placebo” value (endogenous GH secretion; GH deconvolution, ITT, Day 28) was −0.4. The “% pulsatile secretion rate: mean (SD)” value (endogenous GH secretion; GH deconvolution, ITT, Day 28) was 71.27 (16.24) %, the “Basal secretion rate: median” value (endogenous GH secretion; GH deconvolution, ITT, Day 28) was 98 mU/L/24 h and the “Inter-pulse regularity: comparison vs placebo” value (endogenous GH secretion; GH deconvolution, ITT, Day 28) was −0.0. The “Inter-pulse regularity: mean (SD)” value (endogenous GH secretion; GH deconvolution, ITT, Day 28) was 1.95 (0.30), the “Mass per pulse: comparison vs placebo” value (endogenous GH secretion; GH deconvolution, ITT, Day 28) was 26.5 and the “Mass per pulse: mean (SD)” value (endogenous GH secretion; GH deconvolution, ITT, Day 28) was 43.88 (36.16) mU/L. The “Mean pulse frequency (per 24 h): mean (SD)” value (endogenous GH secretion; GH deconvolution, ITT, Day 28) was 9.07 (3.49) per 24 h, the “Mean pulse frequency: comparison vs placebo” value (endogenous GH secretion; GH deconvolution, ITT, Day 28) was 0.8 and the “Number of pulses: comparison vs placebo” value (endogenous GH secretion; GH deconvolution, ITT, Day 28) was 0.3. For the same compound, the “Number of pulses: mean (SD)” value (endogenous GH secretion; GH deconvolution, ITT, Day 28) was 9.7 (3.7), the “Pulsatile secretion rate: median” value (endogenous GH secretion; GH deconvolution, ITT, Day 28) was 378 mU/L/24 h and the “Time from onset to peak of burst: comparison vs placebo” value (endogenous GH secretion; GH deconvolution, ITT, Day 28) was −4.5. The “Time from onset to peak of burst: mean (SD)” value (endogenous GH secretion; GH deconvolution, ITT, Day 28) was 27.3 (4.7) min, the “Total secretion rate: median” value (endogenous GH secretion; GH deconvolution, ITT, Day 28) was 495 mU/L/24 h and the “Basal secretion rate: comparison or ratio of means” value (endogenous GH secretion; [3]) was 2.53. For the same compound, the “Pulsatile secretion rate: comparison or ratio of means” value (endogenous GH secretion; [3]) was 2.81, the “Total secretion rate: comparison or ratio of means” value (endogenous GH secretion; [3]) was 2.72 and the “GH AUC first 4 hours: increase from baseline to day 28” value (endogenous GH secretion; ITT) was 1137%. The “GH AUC at 4 h: median” value (endogenous GH secretion; ITT, Baseline) was 315 μIU/mL × min, the “GH AUC at 24 h: median” value (endogenous GH secretion; ITT, Baseline) was 3473 μIU/mL × min and the “GH SD at 4 h: median” value (endogenous GH secretion; ITT, Baseline) was 1.0 μIU/mL. The “GH SD at 24 h: median” value (endogenous GH secretion; ITT, Baseline) was 2.9 μIU/mL, the “GH concentration at 4 h: median” value (endogenous GH secretion; ITT, Baseline) was 1.3 μIU/mL and the “GH concentration at 24 h: median” value (endogenous GH secretion; ITT, Baseline) was 2.1 μIU/mL. For the same compound, the “Mean concentration of GH secreted during the first 4 hours” value (endogenous GH secretion; ITT, Baseline) was 1.72 μIU/ml, the “GH AUC at 4 h: median” value (endogenous GH secretion; ITT, Day 28) was 3891 μIU/mL × min and the “GH AUC at 24 h: difference vs placebo” value (endogenous GH secretion; ITT, Day 28) was 11585 μIU/mL × min. The “GH AUC at 24 h: median” value (endogenous GH secretion; ITT, Day 28) was 16753 μIU/mL × min, the “GH SD at 4 h: median” value (endogenous GH secretion; ITT, Day 28) was 11.6 μIU/mL and the “GH SD at 24 h: median” value (endogenous GH secretion; ITT, Day 28) was 13.3 μIU/mL. The “GH concentration at 4 h: median” value (endogenous GH secretion; ITT, Day 28) was 16.2 μIU/mL, the “GH concentration at 24 h: comparison vs placebo” value (endogenous GH secretion; ITT, Day 28) was 9.5 and the “GH concentration at 24 h: median” value (endogenous GH secretion; ITT, Day 28) was 12.5 μIU/mL. The “GH AUC at 4 h: ratio” value (endogenous GH secretion; ITT, Day 28, vs placebo) was 9.5 and 9.49, the “GH SD at 4 h: comparison or ratio of means” value (endogenous GH secretion; ITT, Day 28, vs placebo) was 6.97 and the “GH SD at 24 h: comparison or ratio of means” value (endogenous GH secretion; ITT, Day 28, vs placebo) was 3.92. The “GH concentration at 4 h: ratio” value (endogenous GH secretion; ITT, Day 28, vs placebo) was 9.50, the “Mean GH concentration first 4 hours: increase” value (endogenous GH secretion; ITT, baseline to day 28) was 1136% and the “Mean concentration of GH secreted during the first 4 hours” value (endogenous GH secretion; ITT, day 28) was 21.26 μIU/ml. The “Mean amount of GH secreted in 24 hours (AUC)” value (endogenous GH secretion; baseline) was 3770.62 μIU/ml×min, the “Mean basal GH secretion rate” value (endogenous GH secretion; baseline) was 26.9 mU/L/24 h and the “Mean concentration of GH” value (endogenous GH secretion; baseline) was 2.49 μIU/ml. The “Mean 24-hour GH AUC: increase” value (endogenous GH secretion; baseline to day 28) was 393%, the “Mean amount of GH secreted in 24 hours (AUC)” value (endogenous GH secretion; day 28) was 18579.9 μIU/ml×min and the “Fasting cholesterol: mean difference (GHRH-Placebo)” value ([1]; ITT) was −0.58. For the same compound, the “Albumin: median” value ([1]; ITT, Baseline) was 41.0 g/L, the “Fasting glucose: median” value ([1]; ITT, Baseline) was 5.1 mmol/L and the “Fasting insulin: median” value ([1]; ITT, Baseline) was 8.4 μ units/mL. The “Fasting triglycerides: median” value ([1]; ITT, Baseline) was 1.40 mmol/L, the “Pre-albumin: mean (SD)” value ([1]; ITT, Baseline) was 0.216 (0.088) g/L and the “Transferrin: mean (SD)” value ([1]; ITT, Baseline) was 2.202 (0.315) g/L. For the same compound, the “Albumin: median” value ([1]; ITT, Day 28) was 40.4 g/L, the “Fasting glucose: median” value ([1]; ITT, Day 28) was 5.4 mmol/L and the “Fasting insulin: median” value ([1]; ITT, Day 28) was 12.1 μ units/mL. For the same compound, the “Fasting triglycerides: median” value ([1]; ITT, Day 28) was 1.98 mmol/L, the “HbA1c: median” value ([1]; ITT, Day 28) was 5.606% and the “Pre-albumin: mean (SD)” value ([1]; ITT, Day 28) was 0.201 (0.103) g/L. For the same compound, the “Transferrin: mean (SD)” value ([1]; ITT, Day 28) was 2.383 (0.370) g/L, the “Fasting cholesterol: median” value ([1]; ITT, Day 28, listed as GHRH(1-29)NH2 synthetic analog) was 4.69 mmol/L and the “HbA1c: median” value ([1]; ITT, Screening) was 5.516%. The “Fasting glucose: ratio of means” value ([1]; ITT, vs placebo) was 1.030, the “Fasting insulin: ratio of means” value ([1]; ITT, vs placebo) was 1.79 and 1.788 and the “Fasting triglycerides: ratio of means” value ([1]; ITT, vs placebo) was 1.199. For the same compound, the “Pre-albumin: comparison or ratio of means” value ([1]; ITT, vs placebo) was −0.093, the “Transferrin: comparison or ratio of means” value ([1]; ITT, vs placebo) was 0.06 and the “Fasting insulin: median” value ([1]; day 7) was 14.2 μunits/ml. The “Fasting insulin: median” value ([1]; day 14) was 15.5 μunits/ml and the “Reduction of mean cholesterol in almost all patients (10/12)” value ([1]; in vivo) was “up to 10%”.
